The values that follow come from patent US7135625B2, “Gene concerning brassinosteroid-sensitivity of plants and utilization thereof” (National Institute of Agrobiological Sciences, priority 2000, dated 2006).

Assay type in all cases: in vivo, Oriza sativa
In assay [1] the test system is d61-1 and d61-2 mutant seedlings. Description: Germination of seeds on agar plates with or without brassinolide, d61 mutants. The conditions noted are these: 1 μM brassinolide on agar plates, observed 1 day after germination. The procedure:
(§1) Rice (Oriza sativa) seeds were soaked in distilled water and made to imbibe for 48 h at 30° C. After washing the seeds with distilled water several times, the seeds were germinated in a dark chamber at 30° C. for 8 days. Rice plants were grown in the field or in the greenhouse at 30° C. (day) and 24° C. (night).
(§2) Next, seeds of the wild type and mutant plants were germinated on agar plates with or without 1 μM brassinolide. The characteristics of whole seedlings were observed 1 day after germination.

Another assay has as its system OsBRI1 mRNA. Description: Effect of exogenous brassinolide on the level of OsBRI1 mRNA (RNA hybridization). The conditions noted are these: light- and dark-grown seedlings, 0.9% agar plates with 1 μM brassinolide, six days. The text has this: RNA was isolated from various rice tissues as described in literature (Chomczynski, P. and Sacchi, N.: Anal. Biochem. (1987) 162:156). Ten μg of total RNA were electrophoresed in a 1% agarose gel, then transferred to a Hybond N^+ membrane (Amersham), and analyzed by RNA gel blot hybridization. The present inventors used a partial cDNA fragment (Ser^740 to Asp^1116 corresponding to the kinase domain), as a probe which specifically hybridized to the genomic DNA fragment encoding OsBRI1. DNA hybridization analysis was performed with the same probe and hybridization conditions as described above.
The present inventors also tested the effects of exogenously applied brassinolide and light on the level of OsBRI1 mRNA. Germinating seeds were placed on 0.9% agar plates with or without 1 μM brassinolide and grown for six days in the light or dark.

The next assay has as its system d61 mutants. In words: Restoration of dwarfism of d61 mutants by application of brassinolide.
Assay [2] deals with d61-1 mutant and d61-2 mutant. Description: Lamina joint test, d61 mutants. The source says:
(§3) The degree of bending between the leaf blade and leaf sheath in rice is well known to be sensitive to the concentration of brassinolide or its related compounds. This unusual character of rice leaf is the basis for a quantitative bioassay for brassinosteroids, known as the lamina joint test (Wada, Ketal. (1981) Plant and Cell Physiol. 22, 323–325), even though the biological function of endogenous brassinosteroids in monocotyledonous plants including rice remains unknown. If the mutants are less sensitive to brassinosteroids, the degree of bending between the leaf blade and sheath of the mutant plants will be less than that of the wild type plants.
(§4) Lamina joints of first leave of wild type T65 plant (the background strain of the mutants), d61-1 mutant, and d61-2 mutant were tested with 10^−3 and 10^−2 μg/ml of brassinosteroids, respectively.

Assay [3] relates to wild type plants (rice seedlings). Description: Germination of seeds on agar plates with or without brassinolide, wild type. The conditions noted are these: 1 μM brassinolide on agar plates, observed 1 day after germination. The procedure: as §1, §2
A further assay has as its system wild type T65 plant. Description: Lamina joint test, wild type. The conditions noted are these: wild type T65, first leaf, 10^−3 and 10^−2 μg/ml.
Text: as §3, §4

As to `CC(C)[C@H](C)[C@@H](O)[C@H](O)[C@@H](C)[C@H]1CC[C@H]2[C@@H]3COC(=O)[C@H]4C[C@H](O)[C@H](O)C[C@]4(C)[C@H]3CC[C@]12C` [brassinolide], the growth of seedlings result was “normal growth patterns” in assay [1] and “not affected” in assay [1] (listed as BL). The “level of OsBRI1 expression” value with OsBRI1 mRNA was “reduced level of OsBRI1 expression”. Moreover, in the assay on d61 mutants, the “restoration of the dwarfism of the d61 mutants” value is on record as “could not be achieved”. Further, the “degree of bending between leaf blade and leaf sheath” value is given as “degree of bending increased” in assay [2] (d61-1 and d61-2 mutants, first leaf, 10^−3 and 10^−2 μg/ml); “bent at less than a right angle” in assay [2] (d61-2 mutant, 10^−2 μg/ml brassinolide); “even more bent” with wild type T65 plant. The “growth of seedlings (coleoptile, foliage leaves)” value in assay [3] was “elongated abnormally”; in assay [3] (listed as BL) it was “induced abnormal growth”. Besides, the root elongation entry in assay [3] is on record as “inhibited”.
